Data on 1 molecule can be found in patent US8883213B2, “Ion exchange resin treated to control swelling” (Coating Place, Inc., priority 2005, dated 2014).

Data set [1] is described as follows: Release profile of phenylephrine hydrochloride from drug-resin complex with a 25% coating (Table V). It is filed as physicochemical.
The nature of data set [2]: Release of both drugs from coated layer loaded compound B-phenylephrine HCl-IRP-69 drug-resin complex (Table VII). In kind it is physicochemical. The settings on record: from coated layer loaded compound B-phenylephrine HCl-IRP-69 complex. The method, then:
The present invention also provides compositions and methods of releasing two or more pharmaceutical compositions. For example, a phenylephrine HCl and IRP-69 drug-resin complex is prepared using any of the methods disclosed herein or as disclosed in the prior art. The phenylephrine HCl and IRP-69 drug-resin complex is directly loaded with a second drug (e.g., compound B) by spray applying a solution containing compound B to the phenylephrine HCl-IRP-69 drug-resin complex. This layer loaded complex (compound B-phenylephrine HCl-IRP-69 drug-resin complex) is then coated as previously described.

Counter-ions that a name gives are not always drawn.

On to `CNC[C@H](O)c1cccc(O)c1` [Phenylephrine Hydrochloride], for which the “% Released” value in data set [1] (0.5 hr) turned out to be 25.5%; in data set [1] (1.0 hr), 30.5%; in data set [1] (3.0 hr) it was 61.0%; in data set [1] (6.0 hr), 93.0%; in data set [1] (12.0 hr), 97.0%. The Released in data set [2] (0.5 hour) worked out at 48%; in data set [2] (1.0 hour), 55%; in data set [2] (1.5 hour), 76%; in data set [2] (2.0 hour), 81%; in data set [2] (4.0 hour) it was 92%.
